Measurements: patent US20230017045A1, “PYRIDINE AND PYRIMIDINE CARBOXYLATE HERBICIDES AND METHODS OF USE THEREOF” (Dow AgroSciences LLC, priority 2017, published 2023)

tested on: test plant species; assay: Post-emergent herbicidal activity test (greenhouse, foliar spray, visual growth reduction); type: in vivo; conditions: post-emergence, 336 h, ALOMY: blackgrass (Alopecurus myosuroides), 140 g ai/ha, 14 days after application, read-out: Visual Growth Reduction (%) 14 Days After Application, ALOMY
In short: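 Visual scoring 14 d after treatment (0 = no injury, 100 = complete control) against nontreated and solvent-blank plants gave percent growth reduction. Foliar application used a track sprayer delivering 187 L/ha to seedlings at first or second true leaf stage, grown at 23–29 °C day, ~15 h photoperiod.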

Q: For COC(=O)c1nc(-c2cc3c(cc2F)OC(F)(F)O3)ccc1Cl [F172, Methyl 3-chloro-6-(2,2,6-trifluorobenzo[d] [1,3]dioxol-5-yl)picolinate], which pest or weed control at 140 g/ha is on record?
A: The pest or weed control at 140 g/ha was 30 to 44%.

Q: For COC(=O)c1nc(-c2cc(Br)c(C(F)(F)F)cc2Cl)c(F)cc1Cl [F152, Methyl 6-(5-bromo-2-chloro-4-(trifluoromethyl)phenyl)-3-chloro-5-fluoropicolinate], which pest or weed control at 140 g/ha is on record?
A: The pest or weed control at 140 g/ha was 0 to 29%.

same assay, conditions: post-emergence, 336 h, AMARE: redroot pigweed (Amaranthus retroflexus), 140 g ai/ha, 14 days after application, read-out: Visual Growth Reduction (%) 14 Days After Application, AMARE

Q: How did the pest or weed control at 140 g/ha turn out when COC(=O)c1nc(-c2cc3c(cc2F)OC(F)(F)O3)ccc1Cl [F172, Methyl 3-chloro-6-(2,2,6-trifluorobenzo[d] [1,3]dioxol-5-yl)picolinate] was run?
A: Its pest or weed control at 140 g/ha is 95 to 100%.

Q: How did the pest or weed control at 140 g/ha turn out when COC(=O)c1nc(-c2cc(Br)c(C(F)(F)F)cc2Cl)c(F)cc1Cl [F152, Methyl 6-(5-bromo-2-chloro-4-(trifluoromethyl)phenyl)-3-chloro-5-fluoropicolinate] was run?
A: The pest or weed control at 140 g/ha was 95 to 100%.

same assay, conditions: post-emergence, 336 h, AVEFA: wild oat (Avena fatua), 140 g ai/ha, 14 days after application, read-out: Visual Growth Reduction (%) 14 Days After Application, AVEFA

Q: For COC(=O)c1nc(-c2cc3c(cc2F)OC(F)(F)O3)ccc1Cl [F172, Methyl 3-chloro-6-(2,2,6-trifluorobenzo[d] [1,3]dioxol-5-yl)picolinate], which pest or weed control at 140 g/ha is on record?
A: Its pest or weed control at 140 g/ha is 30 to 44%.

Q: COC(=O)c1nc(-c2cc(Br)c(C(F)(F)F)cc2Cl)c(F)cc1Cl [F152, Methyl 6-(5-bromo-2-chloro-4-(trifluoromethyl)phenyl)-3-chloro-5-fluoropicolinate] was tested. Which pest or weed control at 140 g/ha did it give?
A: The pest or weed control at 140 g/ha was 0 to 29%.

same assay, conditions: post-emergence, 336 h, CHEAL: lambsquarters (Chenopodium album), 140 g ai/ha, 14 days after application, read-out: Visual Growth Reduction (%) 14 Days After Application, CHEAL

Q: How did the pest or weed control at 140 g/ha turn out when COC(=O)c1nc(-c2cc3c(cc2F)OC(F)(F)O3)ccc1Cl [F172, Methyl 3-chloro-6-(2,2,6-trifluorobenzo[d] [1,3]dioxol-5-yl)picolinate] was run?
A: Its pest or weed control at 140 g/ha is 85 to 94%.

Q: COC(=O)c1nc(-c2cc(Br)c(C(F)(F)F)cc2Cl)c(F)cc1Cl [F152, Methyl 6-(5-bromo-2-chloro-4-(trifluoromethyl)phenyl)-3-chloro-5-fluoropicolinate] was tested. Which pest or weed control at 140 g/ha did it give?
A: Its pest or weed control at 140 g/ha is 95 to 100%.

same assay, conditions: post-emergence, 336 h, CIRAR: canada thistle (Cirsium arvense), 140 g ai/ha, 14 days after application, read-out: Visual Growth Reduction (%) 14 Days After Application, CIRAR

Q: Which pest or weed control at 140 g/ha does the source give for COC(=O)c1nc(-c2cc3c(cc2F)OC(F)(F)O3)ccc1Cl [F172, Methyl 3-chloro-6-(2,2,6-trifluorobenzo[d] [1,3]dioxol-5-yl)picolinate] here?
A: The pest or weed control at 140 g/ha was 60 to 74%.

Q: With COC(=O)c1nc(-c2cc(Br)c(C(F)(F)F)cc2Cl)c(F)cc1Cl [F152, Methyl 6-(5-bromo-2-chloro-4-(trifluoromethyl)phenyl)-3-chloro-5-fluoropicolinate] as the molecule, how does the pest or weed control at 140 g/ha read?
A: Its pest or weed control at 140 g/ha is 45 to 59%.

same assay, conditions: post-emergence, 336 h, CYPES: yellow nutsedge (Cyperus esculentus), 140 g ai/ha, 14 days after application, read-out: Visual Growth Reduction (%) 14 Days After Application, CYPES

Q: Which pest or weed control at 140 g/ha does the source give for COC(=O)c1nc(-c2cc3c(cc2F)OC(F)(F)O3)ccc1Cl [F172, Methyl 3-chloro-6-(2,2,6-trifluorobenzo[d] [1,3]dioxol-5-yl)picolinate] here?
A: The pest or weed control at 140 g/ha was 75 to 84%.

Q: Which pest or weed control at 140 g/ha does the source give for COC(=O)c1nc(-c2cc(Br)c(C(F)(F)F)cc2Cl)c(F)cc1Cl [F152, Methyl 6-(5-bromo-2-chloro-4-(trifluoromethyl)phenyl)-3-chloro-5-fluoropicolinate] here?
A: The pest or weed control at 140 g/ha was 0 to 29%.

same assay, conditions: post-emergence, 336 h, DIGSA: crabgrass (Digitaria sanguinalis), 140 g ai/ha, 14 days after application, read-out: Visual Growth Reduction (%) 14 Days After Application, DIGSA

Q: With COC(=O)c1nc(-c2cc3c(cc2F)OC(F)(F)O3)ccc1Cl [F172, Methyl 3-chloro-6-(2,2,6-trifluorobenzo[d] [1,3]dioxol-5-yl)picolinate] as the molecule, how does the pest or weed control at 140 g/ha read?
A: The pest or weed control at 140 g/ha was 85 to 94%.

Q: Which pest or weed control at 140 g/ha does the source give for COC(=O)c1nc(-c2cc(Br)c(C(F)(F)F)cc2Cl)c(F)cc1Cl [F152, Methyl 6-(5-bromo-2-chloro-4-(trifluoromethyl)phenyl)-3-chloro-5-fluoropicolinate] here?
A: The pest or weed control at 140 g/ha was 60 to 74%.

same assay, conditions: post-emergence, 336 h, ECHCG: barnyardgrass (Echinochloa crus-galli), 140 g ai/ha, 14 days after application, read-out: Visual Growth Reduction (%) 14 Days After Application, ECHCG

Q: How did the pest or weed control at 140 g/ha turn out when COC(=O)c1nc(-c2cc3c(cc2F)OC(F)(F)O3)ccc1Cl [F172, Methyl 3-chloro-6-(2,2,6-trifluorobenzo[d] [1,3]dioxol-5-yl)picolinate] was run?
A: Its pest or weed control at 140 g/ha is 75 to 84%.

Q: How did the pest or weed control at 140 g/ha turn out when COC(=O)c1nc(-c2cc(Br)c(C(F)(F)F)cc2Cl)c(F)cc1Cl [F152, Methyl 6-(5-bromo-2-chloro-4-(trifluoromethyl)phenyl)-3-chloro-5-fluoropicolinate] was run?
A: The pest or weed control at 140 g/ha was 0 to 29%.

same assay, conditions: post-emergence, 336 h, IPOHE: ivy-leaf morning glory (Ipomoea hederacea), 140 g ai/ha, 14 days after application, read-out: Visual Growth Reduction (%) 14 Days After Application, IPOHE

Q: Which pest or weed control at 140 g/ha does the source give for COC(=O)c1nc(-c2cc3c(cc2F)OC(F)(F)O3)ccc1Cl [F172, Methyl 3-chloro-6-(2,2,6-trifluorobenzo[d] [1,3]dioxol-5-yl)picolinate] here?
A: The pest or weed control at 140 g/ha was 95 to 100%.

Q: COC(=O)c1nc(-c2cc(Br)c(C(F)(F)F)cc2Cl)c(F)cc1Cl [F152, Methyl 6-(5-bromo-2-chloro-4-(trifluoromethyl)phenyl)-3-chloro-5-fluoropicolinate] was tested. Which pest or weed control at 140 g/ha did it give?
A: Its pest or weed control at 140 g/ha is 95 to 100%.

same assay, conditions: post-emergence, 336 h, KCHSC: kochia (Bassia scoparia), 140 g ai/ha, 14 days after application, read-out: Visual Growth Reduction (%) 14 Days After Application, KCHSC

Q: Which pest or weed control at 140 g/ha does the source give for COC(=O)c1nc(-c2cc3c(cc2F)OC(F)(F)O3)ccc1Cl [F172, Methyl 3-chloro-6-(2,2,6-trifluorobenzo[d] [1,3]dioxol-5-yl)picolinate] here?
A: The pest or weed control at 140 g/ha was 30 to 44%.

Q: How did the pest or weed control at 140 g/ha turn out when COC(=O)c1nc(-c2cc(Br)c(C(F)(F)F)cc2Cl)c(F)cc1Cl [F152, Methyl 6-(5-bromo-2-chloro-4-(trifluoromethyl)phenyl)-3-chloro-5-fluoropicolinate] was run?
A: The pest or weed control at 140 g/ha was 85 to 94%.

same assay, conditions: post-emergence, 336 h, ORYSA: rice (Oryza sativa), 140 g ai/ha, 14 days after application, read-out: Visual Growth Reduction (%) 14 Days After Application, ORYSA

Q: For COC(=O)c1nc(-c2cc3c(cc2F)OC(F)(F)O3)ccc1Cl [F172, Methyl 3-chloro-6-(2,2,6-trifluorobenzo[d] [1,3]dioxol-5-yl)picolinate], which pest or weed control at 140 g/ha is on record?
A: Its pest or weed control at 140 g/ha is 0 to 29%.

Q: Which pest or weed control at 140 g/ha does the source give for COC(=O)c1nc(-c2cc(Br)c(C(F)(F)F)cc2Cl)c(F)cc1Cl [F152, Methyl 6-(5-bromo-2-chloro-4-(trifluoromethyl)phenyl)-3-chloro-5-fluoropicolinate] here?
A: Its pest or weed control at 140 g/ha is 0 to 29%.

same assay, conditions: post-emergence, 336 h, SETFA: giant foxtail (Setaria faberi), 140 g ai/ha, 14 days after application, read-out: Visual Growth Reduction (%) 14 Days After Application, SETFA

Q: For COC(=O)c1nc(-c2cc3c(cc2F)OC(F)(F)O3)ccc1Cl [F172, Methyl 3-chloro-6-(2,2,6-trifluorobenzo[d] [1,3]dioxol-5-yl)picolinate], which pest or weed control at 140 g/ha is on record?
A: Its pest or weed control at 140 g/ha is 45 to 59%.

Q: With COC(=O)c1nc(-c2cc(Br)c(C(F)(F)F)cc2Cl)c(F)cc1Cl [F152, Methyl 6-(5-bromo-2-chloro-4-(trifluoromethyl)phenyl)-3-chloro-5-fluoropicolinate] as the molecule, how does the pest or weed control at 140 g/ha read?
A: The pest or weed control at 140 g/ha was 0 to 29%.

same assay, conditions: post-emergence, 336 h, SORVU: grain sorghum (Sorghum vulgare), 140 g ai/ha, 14 days after application, read-out: Visual Growth Reduction (%) 14 Days After Application, SORVU

Q: COC(=O)c1nc(-c2cc3c(cc2F)OC(F)(F)O3)ccc1Cl [F172, Methyl 3-chloro-6-(2,2,6-trifluorobenzo[d] [1,3]dioxol-5-yl)picolinate] was tested. Which pest or weed control at 140 g/ha did it give?
A: Its pest or weed control at 140 g/ha is 95 to 100%.

Q: With COC(=O)c1nc(-c2cc(Br)c(C(F)(F)F)cc2Cl)c(F)cc1Cl [F152, Methyl 6-(5-bromo-2-chloro-4-(trifluoromethyl)phenyl)-3-chloro-5-fluoropicolinate] as the molecule, how does the pest or weed control at 140 g/ha read?
A: Its pest or weed control at 140 g/ha is 95 to 100%.

same assay, conditions: post-emergence, 336 h, STEME: common chickweed (Stellaria media), 140 g ai/ha, 14 days after application, read-out: Visual Growth Reduction (%) 14 Days After Application, STEME

Q: How did the pest or weed control at 140 g/ha turn out when COC(=O)c1nc(-c2cc3c(cc2F)OC(F)(F)O3)ccc1Cl [F172, Methyl 3-chloro-6-(2,2,6-trifluorobenzo[d] [1,3]dioxol-5-yl)picolinate] was run?
A: Its pest or weed control at 140 g/ha is 0 to 29%.

Q: COC(=O)c1nc(-c2cc(Br)c(C(F)(F)F)cc2Cl)c(F)cc1Cl [F152, Methyl 6-(5-bromo-2-chloro-4-(trifluoromethyl)phenyl)-3-chloro-5-fluoropicolinate] was tested. Which pest or weed control at 140 g/ha did it give?
A: Its pest or weed control at 140 g/ha is 0 to 29%.

same assay, conditions: post-emergence, 336 h, TRZAS: wheat, spring (Triticum aestivum), 140 g ai/ha, 14 days after application, read-out: Visual Growth Reduction (%) 14 Days After Application, TRZAS

Q: Which pest or weed control at 140 g/ha does the source give for COC(=O)c1nc(-c2cc3c(cc2F)OC(F)(F)O3)ccc1Cl [F172, Methyl 3-chloro-6-(2,2,6-trifluorobenzo[d] [1,3]dioxol-5-yl)picolinate] here?
A: The pest or weed control at 140 g/ha was 45 to 59%.

Q: How did the pest or weed control at 140 g/ha turn out when COC(=O)c1nc(-c2cc(Br)c(C(F)(F)F)cc2Cl)c(F)cc1Cl [F152, Methyl 6-(5-bromo-2-chloro-4-(trifluoromethyl)phenyl)-3-chloro-5-fluoropicolinate] was run?
A: The pest or weed control at 140 g/ha was 0 to 29%.
